Patent publication US4153695A, “Substituted 2,3-dihydro imidazo[1,2-c]pyrimidines” (priority 1978, dated 1979)
Several values for one entry are separate records, joined by “and”; a condition that tells them apart may be missing. Equal entries are not always repeated. Structures can show the parent of a compound that is named as a salt. Where two headings read alike, the source gives them in different places.

What was measured:
Herpes simplex virus = test: In vitro plaque inhibition of Herpes simplex virus in BSC-1 or Hela cells (Table 3); format: cell-based; settings: for inhibition at 3 µg/mL / inhibition at 12 µg/mL / inhibition at 25 µg/mL / inhibition at 50 µg/mL / inhibition at 6 µg/mL / inhibition at 100 µg/mL: 72 h; for inhibition at 3 µg/mL: read-out: PERCENT INHIBITION OF PLAQUES AT 3 mcg/ml; for inhibition at 12 µg/mL: read-out: PERCENT INHIBITION OF PLAQUES AT 12 mcg/ml; for inhibition at 25 µg/mL: read-out: PERCENT INHIBITION OF PLAQUES AT 25 mcg/ml; for PERCENT INHIBITION OF PLAQUES AT 50 mcg/ml / inhibition at 50 µg/mL: 50 mcg/ml; for inhibition at 50 µg/mL: read-out: PERCENT INHIBITION OF PLAQUES AT 50 mcg/ml; for inhibition at 6 µg/mL: read-out: PERCENT INHIBITION OF PLAQUES AT 6 mcg/ml; for inhibition at 100 µg/mL: 100 mcg/ml, read-out: PERCENT INHIBITION OF PLAQUES AT 100 mcg/ml
Description: The compounds of this invention also have anti-viral activity in vitro against Herpes simplex virus.
African green monkey kidney cells (BSC-1) or Hela cells (5-3) were grown in 25 cc. Falcon flasks at 37° C. in medium 199 with 5 percent inactivated fetal bovine serum (FBS), penicillin (150 units 1 ml.) and streptomycin (150 mcg./ml.). When confluent monolayers were formed, the supernatant growth medium was removed and 0.3 ml. of an appropriate dilution of Herpes simplex virus was added to each flask. After adsorption for one hour at room temperature, the virus infected cell sheet was overlaid with a medium comprising one part of 1 percent Ionagar No. 2 and one part double strength medium 199 with FCS, (fetal calf serum) penicillin, and streptomycin and also containing drug at concentrations of 100, 50, 25, 12, 6 and 3 micrograms per milliliter (mcg./ml.). The flask containing no drug served as a control. The stock solutions of 2,3-dihydroimidazo[1,2-c]pyrimidine compounds were made up in dimethylsulfoxide dilution at a concentration of 10^4 mcg./ml. The flasks were incubated for 72 hours at 37° C. […] A solution of 10 percent formalin and 2 percent sodium acetate was added to each flask to inactivate the virus and fix the cell sheet to the surface of the flask. The virus plaques, irrespective of size, were counted after staining the surrounding cell areas with crystal violet. The plaque count was compared to the control count at each drug concentration. The activity of the test compound was expressed as percentage plaque inhibition. Table 3, which follows, embodies the results of these determinations. In the table, column 1 gives the name of the compound, columns 2 through 6, the percent inhibition of herpes simplex plaques at various mcg./ml. levels of drug.

[1] = system: Herpes simplex virus type I and Herpes simplex virus type II; test: Intravaginal treatment of Herpes simplex virus type I and type II infection in guinea pigs, final score (Table 2); format: in vivo
Description: A second in-vivo test against Herpes simplex virus type I and Herpes simplex virus type II was carried out as follows. Guinea pigs were inoculated intravaginally by swabing the vagina with an absorbent cotton swab containing 2×10^4 plaque forming units of the virus. Prior to the inoculation with the virus, the vagina was swabbed with physiological saline to remove potential virus inhibitors. Treatment was started four hours after inoculation and continued for four days. The drug in a suitable base was introduced into the vaginal area also with an absorbent cotton swab. Controls in which the vehicle only were swabbed were included. Beginning on day 5 after inoculation and continuing through day 10, each animal was examined and scored from 0 to 4+ for secretion, inflammation, vesiculation and necrosis, thus yielding a possible top score of +16 per guinea pig. In the table, column 1 gives the name of the compound; column 2, the vehicle; column 3, the concentration; column 4, the number of animals used; and columns 5, the final score.

[2] = system: cutaneous Herpes simplex virus type 1; test: Topical treatment of cutaneous Herpes simplex virus type 1 lesions on guinea pig back, final score (Table 1); format: in vivo, guinea pigs; settings: lesions scored 0 to 4+
Description: Three epilated areas on each guinea pig back were inoculated with approximately 1×10^5 plaque forming units of virus using a Sterneedle triggered 10 times for each area. Untreated guinea pigs so inoculated developed consistent rosette lesions in about 96 hours. All three areas on the back of each guinea pig were drug-treated and these compared with separate control animals which were treated with the particular vehicle employed for administering the drug. The positive control animals were treated with 0.5-1.0 percent phosphonoacetic acid (PAA) suspended in the same vehicle as the drug. Animals were inoculated on the morning of day 1 and treated on the afternoon of day 1. Two treatments per day were administered through day 5 for a total of 10 treatments. Hair was again epilated on day 5 and readings were begun then and taken daily through day 10. Lesions for each area were scored from 0 to 4+, which was a fully developed herpatic lesion with inflammation vesicles and pustules. An average score was then calculated for each drug for each day for the number of treated areas and control areas. Usually 3-6 guinea pigs were used per drug. After scoring, a final score or mean of means was calculated for drug-treated and for control areas. Table I which follows gives the results of determinations carried out as outlined above on compounds coming within the scope of this invention. In the table, column 1 gives the name of the drugs, column 2, the vehicle, column 3, the concentration; column 4, the number of animals used; and columns 5, the final score.

[3] = 25 mcg/ml, 72 hours at 37° C., hydrochloride
[4] = 72 hours at 37° C., hydrochloride
[5] = vehicle R, 2.5 % conc., top score +16

Row | SMILES | PERCENT INHIBITION OF PLAQUES AT 50 mcg/ml (Herpes simplex virus; [4]) | inhibition at 3 µg/mL (Herpes simplex virus; 3 mcg/ml, 72 hours at 37° C.) | inhibition at 12 µg/mL (Herpes simplex virus; 12 mcg/ml, 72 hours at 37° C.) | inhibition at 25 µg/mL (Herpes simplex virus; 25 mcg/ml, 72 hours at 37° C.) | inhibition at 50 µg/mL (Herpes simplex virus; 72 hours at 37° C.) | inhibition at 6 µg/mL (Herpes simplex virus; 6 mcg/ml, 72 hours at 37° C.) | Final Score [1, 5] | other results
1 | CC1=NC(Cl)=CC2=NC(c3ccccc3)CN12.Cl (racemic) [2-phenyl-5-methyl-7-chloro-2,3-dihydroimidazo[1,2-c]pyrimidine hydrochloride] | 89% | 0% | 41% | 87% | 100% |  |  | PERCENT INHIBITION OF PLAQUES AT 12 mcg/ml (Herpes simplex virus; 12 mcg/ml, 72 hours at 37° C., hydrochloride): 50%; PERCENT INHIBITION OF PLAQUES AT 25 mcg/ml (Herpes simplex virus; [3]): 83%
2 | CC1=NC(Cl)=CC2=NCCN12.Cl [5-methyl-7-chloro-2,3-dihydroimidazo[1,2-c]pyrimidine hydrochloride] | 82% |  | 0% |  | 85% | 0% |  | Final Score ([1]; vehicle C, 2.5 % conc., top score +16): 7.9; Final Score ([1]; vehicle D, 2.0 % conc., top score +16): 6.13; Final Score ([1]; vehicle R, 2.0 % conc., top score +16, hydrochloride): 3.17 and 3.57; Final Score ([2]; vehicle B, 1.0 % conc.): 2.06; Final Score ([2]; vehicle D, 1.0 % conc.): 1.56; Final Score ([2]; vehicle K, 1.0 % conc.): 1.95; Final Score ([2]; vehicle R, 1.0 % conc.): 1.81
3 | CSC1=NC(Cl)=C(c2ccccc2)C2=NCCN12.Cl [5-Methylthio-7-chloro-8-phenyl-2,3-dihydroimidazo[1,2-c]pyrimidine hydrochloride] |  |  |  |  |  |  |  | PERCENT INHIBITION OF PLAQUES AT 3 mcg/ml (Herpes simplex virus; 3 mcg/ml, 72 hours at 37° C., hydrochloride): 100% and 58%; Final Score ([2]; vehicle D, 2.5 % conc.): 1.97
4 | NC1=NC(Cl)=CC2=NCCN12 [5-Amino-7-chloro-2,3-dihydroimidazo[1,2-c]pyrimidine hydrochloride] |  | 0% | 0% | 0% | 0% | 0% |  | inhibition at 100 µg/mL (Herpes simplex virus; 72 hours at 37° C.): 11%
5 | CCC1=NC(Cl)=CC2=NCCN21.Cl [5-Ethyl-7-chloro-2,3-dihydroimidazo[1,2-c]pyrimidine hydrochloride] | 76% | 0% |  | 50% |  |  | 2.83 | PERCENT INHIBITION OF PLAQUES AT 25 mcg/ml (Herpes simplex virus; [3]): 33%; inhibition at 100 µg/mL (Herpes simplex virus; 72 hours at 37° C.): 100%; Final Score ([2]; vehicle D, 1.0 % conc.): 1.09; Final Score ([2]; vehicle D, 1.5 % conc.): 1.53; Final Score ([2]; vehicle D, 2.5 % conc.): 1.60
6 | CSC1=NC(Cl)=CC2=NCCN21.Cl [5-Methylthio-7-chloro-2,3-dihydroimidazo[1,2-c]pyrimidine hydrochloride] |  | 30% | 100% |  |  | 49% | .92 | Final Score ([1]; vehicle D, 2.5 % conc., top score +16): 3.81; PERCENT INHIBITION OF PLAQUES AT 6 mcg/ml (Herpes simplex virus; 6 mcg/ml, 72 hours at 37° C., hydrochloride): 48%; Final Score ([2]; vehicle R, 2.5 % conc.): 2.00
7 | Cl.O=[N+]([O-])C1=C(NCCCl)N=CN2CCN=C12 [7-(β-chloroethylamino)-8-nitro-2,3-dihydroimidazo[1,2-c]pyrimidine hydrochloride] |  |  |  |  |  |  | 1.25 | inhibition at 6 µg/mL (Herpes simplex virus): 33%; inhibition at 12 µg/mL (Herpes simplex virus): 41%; inhibition at 25 µg/mL (Herpes simplex virus): 68%
